The target of experiment [1] is T1, D2 receptors (Rattus norvegicus, UniProt P61169).
T1 construct: Striate tissue of rat brain was prepared; from tissue; host or cells: rat brain striatum, crude membrane homogenate
Kind of experiment: Displacement of 3H-spiroperidol binding to D2 receptors (striate tissue of rat brain). The procedure:
Studies on binding to D2 receptors.
These were carried out as described by Leysen et al (1978), with certain modifications. Striate tissue of rat brain was prepared, with homogenization in 20 volumes of Tris-HCl buffer in ice (50 mM, pH=7.7, 4° C.), The homogenate was centrifuged (40,000 g, 10 min) and the pellet was suspended in 10 volumes of cold buffer and recentrifuged. The final pellet was suspended in 10 volumes of 50 mM Tris-HCl buffer, with 120 mM of NaCl and 5 mM of […] (pH=7.7). The displacement studies were carried out with 25 μl of ^3 H-spiroperidol (0.2 nM, NEN), 25 μl of cold displacer and 200 μl of tissue. The incubation (37° C., 15 min) was terminated by rapid filtering through Whatman GF/C filters.
A general note: In a radioligand displacement assay an active substance lowers the binding of a labelled ligand.

Experiment [2] concerns the target α1-adrenergic receptors. As to the kind of experiment: Displacement of 3H-prazosin binding to α1-adrenergic receptors (rat brain cortex). As to conditions: read-out: Displacement (Ki, nM) of the binding of 3H-prazosin to α1-adrenergic receptors, 3H-prazosin 0.5 nM, 37° C., 15 min, pH 7.7. The method, then:
Binding to at adrenergen receptors
These were carried out as described by Morrow et al . […] Rat brain cortical tissue was obtained, with homogenization in 20 volumes of Tris-HCl buffer in ice (50 mM, pH=7.7, 4° C.). The homogenate was centrifuged (25,000 rpm/12 min at 4° C.) and the pellet was rehomogenized, being finally resuspended in 50 mM Tris-HCl buffer, pH=7.7 (dilution 1:200). […] The incubation (37° C., 15 min) was terminated by rapid filtering through Whatman GF/C filters, followed by washing twice with […] of Tris-HCl buffer, 50 mM.

The target of experiment [3] is T2, 5HT2 receptors (Rattus norvegicus, UniProt P14842).
T2 construct: Front cortex of rat brain was prepared; from tissue; host or cells: rat brain frontal cortex, crude membrane homogenate
T2 sequence (P14842 whole entry): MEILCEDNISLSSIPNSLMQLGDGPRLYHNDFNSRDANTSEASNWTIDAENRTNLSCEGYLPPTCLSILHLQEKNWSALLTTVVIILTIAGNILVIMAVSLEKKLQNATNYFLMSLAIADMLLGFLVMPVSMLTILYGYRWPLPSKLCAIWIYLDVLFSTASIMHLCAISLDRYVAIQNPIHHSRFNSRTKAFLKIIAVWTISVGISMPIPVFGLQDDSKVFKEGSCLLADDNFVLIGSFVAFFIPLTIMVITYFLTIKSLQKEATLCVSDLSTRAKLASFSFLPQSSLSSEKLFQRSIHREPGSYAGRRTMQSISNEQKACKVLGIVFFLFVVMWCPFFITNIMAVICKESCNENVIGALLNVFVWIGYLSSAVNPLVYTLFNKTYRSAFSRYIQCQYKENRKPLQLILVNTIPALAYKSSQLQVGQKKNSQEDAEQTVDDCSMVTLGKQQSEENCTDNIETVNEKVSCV
As to the kind of experiment: Displacement of 3H-ketanserine binding to 5HT2 receptors (front cortex of rat brain). Conditions: 3H-ketanserine 0.5 nM, 37° C., 15 min. The procedure:
These were carried out as described by Leysen et al (1978), with certain modifications. […] The incubation (37° C., 15 min) was terminated by rapid filtering through Whatman GF/C filters.

Like-named read-outs stand apart in the source and are kept apart here.

T1 sequence (P61169 whole entry): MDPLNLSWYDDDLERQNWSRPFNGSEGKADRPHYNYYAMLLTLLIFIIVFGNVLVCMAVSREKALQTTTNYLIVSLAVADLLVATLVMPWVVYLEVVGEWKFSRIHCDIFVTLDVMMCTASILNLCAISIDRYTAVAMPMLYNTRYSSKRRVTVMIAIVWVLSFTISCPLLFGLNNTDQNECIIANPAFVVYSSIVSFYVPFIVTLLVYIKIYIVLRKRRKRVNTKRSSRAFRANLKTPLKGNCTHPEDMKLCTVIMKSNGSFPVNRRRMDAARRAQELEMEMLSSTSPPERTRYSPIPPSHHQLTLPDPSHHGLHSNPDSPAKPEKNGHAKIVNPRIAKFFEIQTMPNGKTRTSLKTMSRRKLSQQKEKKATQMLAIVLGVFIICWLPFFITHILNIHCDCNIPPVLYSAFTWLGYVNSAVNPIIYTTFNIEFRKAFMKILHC

For orientation: Ki means a dissociation constant, usually derived from enzyme kinetics or from competition with a known ligand. On to `Cc1nc2sccn2c(=O)c1CCN1CCC(=C(c2ccc(F)cc2)c2ccc(F)cc2)CC1` [Ritanserine, reference compound], for which the Ki in experiment [1] (striate rat tissue, 3H-spiroperidol 0.2 nM, 37° C., 15 min, pH 7.7) was 0.0477 µM; in experiment [2], 29.6 nM.
Take `Cc1nc2n(c(=O)c1CCN1CC=C(c3noc4cc(F)ccc34)CC1)CCCC2` [Compound I, 3-{2-[4-(6-fluoro-benzo[d]isoxazol-3-yl)-3,6-dihydro-2H-pyridin-1-yl]-ethyl}-2-methyl-6,7,8,9-tetrahydropyrido[1,2-a]-pyrimidin-4-one]: the values for the Ki in experiment [1], in experiment [3] and in experiment [2] were 0.022 µM, 0.0017 µM and 14.6 nM, respectively.

Values taken from patent US5658916A, “Drug active on the central nervous system, a process for the preparation thereof and pharmaceutical compositions containing it” (Vita-Invest, S.A., priority 1994, dated 1997).
